According to paper PMC4160546, “Biotechnical paving of recombinant enterocin A as the candidate of anti-Listeria agent” (BMC Microbiology, 2014):
Converted amounts (≈) assume the structure as drawn.

Tests used:
[1] = cited from earlier work
Procedure: The native EntA was stable at 100°C and acidic pH conditions. […] These properties were potentially due to the higher cysteine content of the antimicrobial peptides, similar to the EntA containing four cysteine residues. In addition, the antimicrobial activity of some bacteriocins (nisin, sakacin P and curvacin A) was si ...

L. ivanovii ATCC19119 [2] = experiment: MIC and MBC, microtiter broth dilution method; type: cell-based; settings: Listeria ivanovii, triplicate
Procedure: Minimal inhibitory concentrations (MICs) and Minimum bactericidal concentrations (MBCs) assays were determined using the microtiter broth dilution method. Ampicillin was also tested with the same concentration gradient as a positive control. All tests were performed in triplicate.

L. ivanovii ATCC19119 [3] = experiment: In-vitro killing curve (time-kill) assay; type: cell-based, Listeria ivanovii; settings: 2 × MIC, 10 h time-kill
Procedure: To evaluate the antibacterial activity of rEntA against L. ivanovii ATCC19119, a time-kill assay was performed as described by the methods of Mao [32]. In addition, tubes with only bacterial inoculum were used as growth controls. All experiments were performed in triplicate.

[4] = test system: digestive proteases trypsin and pepsin; settings: cited from earlier work
Text: Similarly, the purified rEntA, with 12.76% basic amino acids and 10.63% aromatic amino acids, was inactivated with trypsin and pepsin (Figure 4C). This high sensitivity to digestive proteases of rEntA contributes to its safety in foods and drugs, during and after oral administration.

Question: For “nisin: class I bacteriocin, widely used in commerce (ITSISLCTPGCKTGALMGCNMKTATCHCSIHVSK; not fully specified; Lantibiotic nisin-A; UniProt P13068 24-57, looked up)”, which “effect of NaCl on antimicrobial activity” value ([1]; addition of NaCl from 0 to 1.17 M) is on record?
Answer: significantly enhanced

Question: With `CC1(C)S[C@@H]2[C@H](NC(=O)[C@H](N)c3ccccc3)C(=O)N2[C@H]1C(=O)O` [ampicillin] as the compound, how does the MBC (L. ivanovii ATCC19119 [2]) read?
Answer: 1.56 µg/mL (≈ 4.46 µM)

Question: What about the MIC (L. ivanovii ATCC19119 [2]) of the same compound?
Answer: 0.39 µg/mL (≈ 1.12 µM)

Question: What about the “growth of survivors after MVL” value (L. ivanovii ATCC19119 [3]) of the same compound?
Answer: resumed growth

Question: For “pediocin PA-1: class IIa bacteriocin (KYYGNGVTCGKHSCSVDWGKATTCIINNGAMAWATGGHQGNHKC; UniProt P29430 19-62, looked up)”, which “bactericidal activity and overall structure at higher temperatures” value [1] is on record?
Answer: well maintained

Question: What about the “sensitivity to trypsin and pepsin” value [4] of the same compound?
Answer: very sensitive
